Among the data in PubChem BioAssay AID330 (DTP/NCI, 2004) are T/C values, retold here.

SMILES strings stand for the structures. “And” between values parts separate entries of the source, which are not always exact repeats. Equal values may be shown once. Inconclusive results and toxic doses are left out.

The subject of the assay is P388 leukemia ip, CD2F1 mice, survival T/C. Kind of assay: NCI In Vivo Anticancer Drug Screen. Data for tumor model P388 Leukemia (intraperitoneal) in CD2F1 (CDF1) mice. As to conditions: endpoint: median survival time, higher = longer survival. Summed up:
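Mice carrying the transplanted tumor received test compound or vehicle. Survival was recorded in each group, and the value is the treated-group measurement divided by that of the vehicle-treated control group.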

Setting [1] is: dose: 25.0 mg/kg/injection, schedule: Q01DX009 (ip), vehicle: saline.
The mark [2] stands for this setting: dose: 50.0 mg/kg/injection, schedule: Q01DX009 (ip), vehicle: saline.
[3] abbreviates: dose: 100.0 mg/kg/injection, schedule: Q01DX009 (ip), vehicle: saline.
Setting [4] is: dose: 200.0 mg/kg/injection, schedule: Q01DX009 (ip), vehicle: saline.
[5] abbreviates: dose: 100.0 mg/kg/injection, schedule: Q04DX003 (ip), vehicle: saline with Tween-80.
Setting [6] is: dose: 200.0 mg/kg/injection, schedule: Q04DX003 (ip), vehicle: saline with Tween-80.
Where [7] appears, read: dose: 400.0 mg/kg/injection, schedule: Q04DX003 (ip), vehicle: saline with Tween-80.
The mark [8] stands for this setting: dose: 50.0 mg/kg/injection, schedule: Q01DX005 (ip), vehicle: saline with Tween-80.
The mark [9] stands for this setting: dose: 100.0 mg/kg/injection, schedule: Q01DX005 (ip), vehicle: saline with Tween-80.
The mark [10] stands for this setting: dose: 200.0 mg/kg/injection, schedule: Q01DX005 (ip), vehicle: saline with Tween-80.
[11] abbreviates: dose: 50.0 mg/kg/injection, schedule: Q01DX009 (ip), vehicle: saline with Tween-80.
Where [12] appears, read: dose: 100.0 mg/kg/injection, schedule: Q01DX009 (ip), vehicle: saline with Tween-80.
The mark [13] stands for this setting: dose: 200.0 mg/kg/injection, schedule: Q01DX009 (ip), vehicle: saline with Tween-80.
Setting [14] is: dose: 60.0 mg/kg/injection, schedule: Q01DX005 (ip), vehicle: Klucel (hydroxypropylcellulose) (HPC).
The mark [15] stands for this setting: dose: 120.0 mg/kg/injection, schedule: Q01DX005 (ip), vehicle: Klucel (hydroxypropylcellulose) (HPC).
The mark [16] stands for this setting: dose: 240.0 mg/kg/injection, schedule: Q01DX005 (ip), vehicle: Klucel (hydroxypropylcellulose) (HPC).
[17] abbreviates: dose: 25.0 mg/kg/injection, schedule: Q01DX009 (ip), vehicle: saline with Tween-80.

Consider `Oc1cccnc1`, for which the T/C is 100 % of control and 103 % of control under setting [1]; 99 % of control and 102 % of control under setting [2]; 102 % of control and 103 % of control under setting [3]; 103 % of control and 112 % of control under setting [4]; 100 % of control and 108 % of control (dose: 400.0 mg/kg/injection, schedule: Q01DX009 (ip), vehicle: saline); 102 % of control and 111 % of control (dose: 600.0 mg/kg/injection, schedule: Q01DX009 (ip), vehicle: saline).
As to `O=c1[nH]c(=O)c2nc(-c3ccc(Cl)cc3)cnc2[nH]1`, the T/C under setting [5] is 94 % of control, the T/C under setting [6] was 102 % of control and the T/C under setting [7] is 101 % of control.
As to `c1ccc2nc(C[n+]3cccc4ccccc43)ccc2c1`, the T/C is 105 % of control (dose: 3.12 mg/kg/injection, schedule: Q01DX005 (ip), vehicle: saline); 106 % of control (dose: 6.25 mg/kg/injection, schedule: Q01DX005 (ip), vehicle: saline); 109 % of control (dose: 12.5 mg/kg/injection, schedule: Q01DX005 (ip), vehicle: saline).
On to `COc1ccccc1Nc1ncnc2sc3c(c12)CCCC3`, for which the T/C under setting [8] is 101 % of control, the T/C under setting [9] is 95 % of control and the T/C under setting [10] is 101 % of control.
Consider `O=C(NNc1ccc([N+](=O)[O-])cc1[N+](=O)[O-])Nc1cccc(Cl)c1`, for which the T/C is, setting by setting: under setting [11], 91 % of control; under setting [12], 99 % of control; under setting [13], 102 % of control.
Turning to `O=C1CN=C(c2ccccc2)N(c2ccccc2)N1`, the T/C under setting [14] is 107 % of control, the T/C under setting [15] is 100 % of control and the T/C under setting [16] was 103 % of control.
Take `CN(C)CCCNC(=O)c1ccc2c(c1)C(=O)c1ccccc1C2=O`: the T/C (dose: 100.0 mg/kg/injection, schedule: Q04DX003 (ip), vehicle: water) was 107 % of control and the T/C (dose: 200.0 mg/kg/injection, schedule: Q04DX003 (ip), vehicle: water) is 115 % of control.
`C=C1CC2(CCOc3ccc(Cl)cc32)OC1=O` (configuration not stated): the T/C reads like this: (dose: 25.0 mg/kg/injection, schedule: Q04DX003 (ip), vehicle: saline with Tween-80) 110 % of control; (dose: 50.0 mg/kg/injection, schedule: Q04DX003 (ip), vehicle: saline with Tween-80) 118 % of control; under setting [5], 101 % of control and 116 % of control; under setting [6], 101 % of control.
For `C=C1C(=O)C23CC1CCC2C12COC(OC(=O)CCCCCCCCCCCCC)C1C(C)(C)C(O)CC2OC3=O` (configuration not stated), the T/C by setting is: (dose: 7.5 mg/kg/injection, schedule: Q01DX009 (ip), vehicle: saline with Tween-80) 109 % of control; (dose: 15.0 mg/kg/injection, schedule: Q01DX009 (ip), vehicle: saline with Tween-80) 109 % of control; (dose: 30.0 mg/kg/injection, schedule: Q01DX009 (ip), vehicle: saline with Tween-80) 100 % of control; (dose: 60.0 mg/kg/injection, schedule: Q01DX009 (ip), vehicle: saline with Tween-80) 111 % of control.
For the compound `O=NNc1ccc(-c2ccc([N+](=O)[O-])cc2)cn1`, the T/C (dose: 3.12 mg/kg/injection, schedule: Q01DX009 (ip), vehicle: saline) is 170 % of control and the T/C (dose: 6.25 mg/kg/injection, schedule: Q01DX009 (ip), vehicle: saline) is 108 % of control.
As for `CN1C=CC2C(C(=O)O)CC2C1=O` (configuration not stated), the T/C was 99 % of control (dose: 100.0 mg/kg/injection, schedule: Q04DX002 (ip), vehicle: saline); 115 % of control (dose: 200.0 mg/kg/injection, schedule: Q04DX002 (ip), vehicle: saline); 109 % of control (dose: 400.0 mg/kg/injection, schedule: Q04DX002 (ip), vehicle: saline).
As for `CCOC(=O)C1C2(C)NC(=O)C1(Cc1ccccc1)c1cc(C)c(C)cc1O2` (configuration not stated), the T/C under setting [8] is 99 % of control, the T/C under setting [9] is 96 % of control and the T/C under setting [10] is 87 % of control.
On to `CCC(C(N)=O)C1=CCCCC1` (configuration not stated), for which the T/C by setting is: under setting [5], 104 % of control; under setting [6], 100 % of control; under setting [7], 100 % of control.
Take `CNc1ncc2c(n1)N(C)C(=O)/C(=C\C(=O)OC)N2`: the T/C was 101 % of control (dose: 40.0 mg/kg/injection, schedule: Q01DX009 (ip), vehicle: saline with Tween-80); 93 % of control (dose: 80.0 mg/kg/injection, schedule: Q01DX009 (ip), vehicle: saline with Tween-80); 99 % of control (dose: 160.0 mg/kg/injection, schedule: Q01DX009 (ip), vehicle: saline with Tween-80).
As for `O=C1C2=C(Nc3cc([N+](=O)[O-])ccc3N2)OC1c1ccccc1Cl` (configuration not stated), the T/C is, setting by setting: under setting [14], 102 % of control; under setting [15], 98 % of control; under setting [16], 98 % of control.
`CC[C@@H](C)[C@H]([C@H](CC(=O)N1CCC[C@@H]1[C@@H](OC)[C@H](C)C(=O)N[C@H](Cc1ccccc1)c1nccs1)OC)N(C)C(=O)[C@H](NC(=O)[C@@H](C(C)C)N(C)C)C(C)C`: the T/C was 155 % of control (dose: 6.5 micrograms/kg/injection, schedule: Q01DX005 (ip), vehicle: saline + alcohol) and 173 % of control (dose: 13.5 micrograms/kg/injection, schedule: Q01DX009 (ip), vehicle: saline + alcohol).
In the case of `CCC(C)C(NC(=O)c1ccccc1)C(=O)O` (configuration not stated), the T/C is 90 % of control under setting [8], 106 % of control under setting [9] and 97 % of control under setting [10].
Turning to `NC(=O)c1cn(CCO)nc1[N+](=O)[O-]`, the T/C was 100 % of control under setting [2], 100 % of control under setting [3] and 119 % of control under setting [4].
For `CCOP(=O)(O)SP(=O)(O)OCC.[Zn+2]`, the T/C by setting is: under setting [17], 109 % of control; under setting [11], 103 % of control and 115 % of control.
Regarding `C1=CCC(C(Nc2nncs2)Nc2nncs2)CC1` (configuration not stated), the T/C is, setting by setting: (dose: 60.0 mg/kg/injection, schedule: Q01DX005 (ip), vehicle: saline with Tween-80) 107 % of control; (dose: 240.0 mg/kg/injection, schedule: Q01DX005 (ip), vehicle: saline with Tween-80) 108 % of control.
Consider `CCCCCNC(=O)c1csc(-c2csc(CCNC(C)=O)n2)n1`, for which the T/C (dose: 12.5 mg/kg/injection, schedule: Q01DX009 (ip), vehicle: distilled water + Tween-80) was 100 % of control; the T/C (dose: 25.0 mg/kg/injection, schedule: Q01DX009 (ip), vehicle: distilled water + Tween-80) is 103 % of control; the T/C (dose: 50.0 mg/kg/injection, schedule: Q01DX009 (ip), vehicle: distilled water + Tween-80) was 92 % of control; the T/C (dose: 100.0 mg/kg/injection, schedule: Q01DX009 (ip), vehicle: distilled water + Tween-80) was 91 % of control.
In the case of `CC(C)=N/N=C(/N)[Se]`, the T/C reads like this: (dose: 3.12 mg/kg/injection, schedule: Q01DX009 (ip), vehicle: saline with Tween-80) 95 % of control; (dose: 6.25 mg/kg/injection, schedule: Q01DX009 (ip), vehicle: saline with Tween-80) 103 % of control; (dose: 12.5 mg/kg/injection, schedule: Q01DX009 (ip), vehicle: saline with Tween-80) 97 % of control.
Turning to `CC1(C)N=C(Oc2cc(Cl)cc(Cl)c2)NC(=S)N1`, the T/C by setting is: (dose: 60.0 mg/kg/injection, schedule: Q01DX005 (ip), vehicle: DMSO) 109 % of control; (dose: 120.0 mg/kg/injection, schedule: Q01DX005 (ip), vehicle: DMSO) 100 % of control; (dose: 240.0 mg/kg/injection, schedule: Q01DX005 (ip), vehicle: DMSO) 97 % of control.
As to `O=C(CI)NCCNc1cccc2c(S(=O)(=O)O)cccc12`, the T/C by setting is: under setting [17], 102 % of control; under setting [11], 100 % of control; under setting [12], 110 % of control and 95 % of control.
With `COn1nnc2ccccc21`, the T/C is, setting by setting: under setting [11], 99 % of control; under setting [12], 104 % of control; under setting [13], 92 % of control.
Consider `CCOC(=O)[n+]1ccc(-c2cc[n+](C(=O)OCC)cc2)cc1`, for which the T/C runs as follows: (dose: 12.5 mg/kg/injection, schedule: Q01DX009 (ip), vehicle: saline) 88 % of control; under setting [1], 91 % of control.
Turning to `C=CCSc1ncnc2nc[nH]c12`, the T/C is, setting by setting: under setting [11], 100 % of control; under setting [12], 109 % of control; under setting [5], 104 % of control; under setting [6], 104 % of control.
